We go through 18 compounds from PMC10280016 (Frontiers in Molecular Biosciences, 2023).

Broadly, the IC50 is the point on the concentration scale where inhibition reaches its midpoint.

SMILES strings stand for the structures. “Also recorded” adds a separate entry of the source. Read-outs that look alike come from different tables or passages of the source.

One data set can be described thus: in vitro. The following applies: human, Caco-2.
Data set [1] relates to SARS-CoV-2 strain G614. Description: microbe, parasite or virus in culture. The settings on record: for IC50: Severe acute respiratory syndrome coronavirus 2, 24 h, read-out: Anti-SARS-CoV-2 activity, spike immunostaining assay (IC50 ± SD). It is filed as cell-based.
Data set [2] relates to SARS-CoV-2.
In data set [3] the test system is SARS-CoV-2. The following applies: Vero E6 cells; ref ter Ellen et al., 2021; cited from earlier work.
The test system of data set [4] is SARS-CoV-2. The following applies: primary human bronchial epithelial cells, air-liquid interface culture; ref ter Ellen et al., 2021; cited from earlier work.
Data set [5] has as its target T1, SARS-CoV-2 main protease (Mpro) (Severe acute respiratory syndrome coronavirus 2, UniProt P0DTD1).
T1 construct: made in house
Type of data set: biochemical.

Data set [6] relates to SARS-CoV-2. The following applies: ref Bojkova et al., 2023; cited from earlier work.
The subject of data set [7] is SARS-CoV-2 strain G614. The following applies: false positive in the assay; ref Bojkova et al., 2023; cited from earlier work.
Data set [8] deals with SARS-CoV-2 strain G614. It is filed as cell-based. The following applies: at 10 µM.
Another data set concerns SARS-CoV. The following applies: cited from earlier work.
The test system of data set [9] is SARS-CoV main protease (Mpro, 3CL protease). The following applies: ref Wen et al., 2007; cited from earlier work.

For the compound `COc1ccc2c(c1)OC1c3ccc(O)cc3OCC21` (single isomer, unassigned; (-)) [Compound 2, (−)-medicarpin], the CC50 in the data set “in vitro” was greater than 100 µM. In addition, in the data set on SARS-CoV-2 strain G614 [1], the “Selectivity index (CC50/IC50)” value is on record as greater than 3.0 and the half-inhibitory concentration (IC50) amounted to 33.4 ± 9.7 µM.

Consider `Oc1ccc2c(c1)OCC1c3cc4c(cc3OC21)OCO4` (single isomer, unassigned; (-)) [Compound 3, (−)-maackiain], for which, in “in vitro”, the CC50 is greater than 100 µM. For the same compound, the IC50 in the data set on SARS-CoV-2 strain G614 [1] is greater than 100 µM.

As to `COc1cc2c(cc1O)C1COc3cc(O)ccc3C1O2` (single isomer, unassigned; (-)) [Compound 4, (−)-3,8-dihydroxy-9-methoxypterocarpan], the “MN Analysis: Activity classification (predicted anti-SARS-CoV-2 activity of the compound)” value in the data set with SARS-CoV-2 [2] was “inactive”. In “in vitro”, the CC50 is greater than 100 µM. Moreover, the IC50 with SARS-CoV-2 strain G614 [1] is greater than 100 µM.

As for `COc1cc(/C=C/c2ccc(O)cc2)cc(OC)c1` [Compound 1, (E)-pterostilbene], the Anti-SARS-CoV-2 activity entry with SARS-CoV-2 [3] and with SARS-CoV-2 [4] was “has shown anti-SARS-CoV-2 activity” each time. In the data set “in vitro”, the CC50 is greater than 100 µM. In the data set on SARS-CoV-2 strain G614 [1], the “Selectivity index (CC50/IC50)” value is given as greater than 2.9. For the same compound, the IC50 in the data set with SARS-CoV-2 strain G614 [1] was found to be 34.7 ± 1.6 µM.

With `COc1ccc2c(c1)O[C@H]1c3ccc(OC)cc3OC[C@@H]21` [Compound 5, (−)-homopterocarpin], in data set [5], the “SARS-CoV-2 Mpro inhibition” value is “did not show any inhibitory activity; also recorded: no inhibitory activity”. In addition, the “MN Analysis: Activity classification (predicted anti-SARS-CoV-2 activity of the compound)” value with SARS-CoV-2 [2] was “active”. The compound further gave a CC50 in the data set “in vitro” greater than 100 µM. Besides, in the data set on SARS-CoV-2 strain G614 [1], the “Selectivity index (CC50/IC50)” value is listed as greater than 5.8 and the IC50 came to 17.2 ± 1.9 µM.

Regarding `COc1ccc2c(c1)OC[C@H]1c3cc4c(cc3O[C@@H]21)OCO4` [Compound 6, (−)-pterocarpin], the “MN Analysis: Activity classification (predicted anti-SARS-CoV-2 activity of the compound)” value in the data set with SARS-CoV-2 [2] is on record as “active”. In addition, the CC50 in “in vitro” was greater than 100 µM. The 50% inhibitory concentration (IC50) in the data set on SARS-CoV-2 strain G614 [1] was greater than 100 µM.

In turn, `COc1ccc2c(c1)OC[C@H]1c3cc(O)c(OC)cc3O[C@@H]21` [Compound 7, (−)-8-hydroxyhomopterocarpan] yielded a CC50 in “in vitro” greater than 100 µM. In the data set with SARS-CoV-2 strain G614 [1], the IC50 is greater than 100 µM.

The compound `COc1ccc(CCCc2ccc(O)c(OC)c2)c(OC)c1` [Compound 9, pterosantalin D] returned a CC50 in the data set “in vitro” greater than 100 µM. In addition, in the data set with SARS-CoV-2 strain G614 [1], the IC50 is greater than 100 µM.

In turn, `COc1cc(O)c2c(=O)c(-c3ccc(O)cc3)coc2c1` [Compound 11, 7-O-methylgenistein] had a CC50 in the data set “in vitro” greater than 100 µM. Also, in the data set with SARS-CoV-2 strain G614 [1], the “Selectivity index (CC50/IC50)” value is recorded as greater than 2.6 and the 50% inhibitory concentration (IC50) stood at 37.9 ± 5.4 µM.

As for `COc1cc(O)c2c(=O)c(-c3ccc(O)c(OC)c3)coc2c1` [Compound 12, 7,3′-di-O-methylorobol], the CC50 in “in vitro” was greater than 100 µM. Moreover, the concentration for half-maximal inhibition (IC50) with SARS-CoV-2 strain G614 [1] is greater than 100 µM.

Regarding `COc1cc(O)c2c(=O)c(-c3ccc(O)c(O)c3)coc2c1` [Compound 13, santal], in the data set “in vitro”, the CC50 is greater than 100 µM. Moreover, in the data set with SARS-CoV-2 strain G614 [1], the “Selectivity index (CC50/IC50)” value is on record as greater than 1.4 and the half-maximal inhibitory concentration (IC50) was 74.2 ± 15.4 µM.

As for `COc1ccc(-c2coc3cc(O)cc(O)c3c2=O)c(OC)c1O` [Compound 14, khrinone C], the “MN Analysis: Activity classification (predicted anti-SARS-CoV-2 activity of the compound)” value in the data set on SARS-CoV-2 [2] was “inactive”. In addition, in “in vitro”, the CC50 was greater than 100 µM. In addition, the IC50 in the data set on SARS-CoV-2 strain G614 [1] was greater than 100 µM.

Turning to `COc1ccc2c(c1)oc(=O)c1c3ccc(OC)cc3oc21` [Compound 16, 3,9-di-O-methylcoumestrol], the CC50 in the data set “in vitro” was greater than 100 µM. The 50% inhibitory concentration (IC50) in the data set on SARS-CoV-2 strain G614 [1] was greater than 100 µM.

`COc1ccc([C@@H]2COc3cc(OC)ccc3C2)c(O)c1` [Compound 22, (−)-isosativan] gave a CC50 in “in vitro” greater than 100 µM. For the same compound, in the data set with SARS-CoV-2 strain G614 [1], the “Selectivity index (CC50/IC50)” value is greater than 2.5 and the IC50 turned out to be 40.8 ± 1.8 µM.

Consider `COc1ccc([C@@H]2COc3cc(OC)ccc3C2=O)cc1` [Compound 23, (+)-7,4′-di-O-methyldihydrodaidzein], for which the CC50 in “in vitro” was greater than 100 µM. Besides, in the data set on SARS-CoV-2 strain G614 [1], the “Selectivity index (CC50/IC50)” value is recorded as greater than 1.9 and the IC50 was determined as 53.3 ± 6.2 µM.

Consider `C[C@H](NC(=O)C(=O)Nc1ccccc1C(C)(C)C)C(=O)N[C@@H](CC(=O)O)C(=O)COc1c(F)c(F)cc(F)c1F` [emricasan], for which, in the data set on SARS-CoV-2 [6], the “Effect on SARS-CoV-2 replication” value is “did not affect SARS-CoV-2 replication”. For the same compound, the “Effect on SARS-CoV-2-induced caspase 3/7 activity” value with SARS-CoV-2 strain G614 [7] was “supressed SARS-CoV-2-induced caspase 3/7 activity”.

Turning to `CCC(CC)COC(=O)[C@H](C)N[P@](=O)(OC[C@H]1O[C@@](C#N)(c2ccc3c(N)ncnn23)[C@H](O)[C@@H]1O)Oc1ccccc1` [remdesivir, reference compound], the “Anti-SARS-CoV-2 activity, Caspase assay [% inhibition]” value with SARS-CoV-2 strain G614 [8] is on record as 93.4 (at 10 µM) % inhibition. Besides, the CC50 in the data set “in vitro” is greater than 10 µM. Besides, in the data set on SARS-CoV-2 strain G614 [1], the “Selectivity index (CC50/IC50)” value is greater than 58.8, the “Selectivity index CC50/IC50” value is listed as greater than 58.8 and the IC50 is 0.17 ± 0.01 µM.

On to `O=C1OC[C@H](Cc2ccc3c(c2)OCO3)/C1=C\c1ccc2c(c1)OCO2` [savinin], for which the “Anti-SARS-CoV activity EC50” value in the data set with SARS-CoV is given as “low micromolar range”. Also, the “Inhibition of SARS-CoV main protease, mode” value in data set [9] is recorded as “competitive inhibition”.
